Experimental data as given in ChEMBL document CHEMBL1125024, “Hemoglobin S antigelation agents based on 5-bromotryptophan with potential for sickle cell anemia” (J Med Chem, 1990).
Where a SMILES comes first, the peptide text is derived from it. [ ]: non-standard residue; d: D form. Trp(5-Br) = N[C@@H](Cc1c[nH]c2ccc(Br)cc12)C(=O)O

species: Homo sapiens; assay: Inhibitory activity against aggregation of deoxy-HbS using CSAT assay; type: functional

Compound	Slope
N[C@@H](Cc1c[nH]c2ccc(Br)cc12)C(=O)O	356 g dl-1M-1
N[C@@H](Cc1c[nH]c2ccccc12)C(=O)O	124 g dl-1M-1
N[C@@H](Cc1c[nH]c2ccccc12)C(=O)N[C@@H](Cc1c[nH]c2ccccc12)C(=O)O (H-Trp-Trp-OH)	235 g dl-1M-1
N[C@@H](Cc1c[nH]c2ccccc12)C(=O)N[C@@H](Cc1c[nH]c2ccc(Br)cc12)C(=O)O (H-Trp-[Trp(5-Br)]-OH)	240 g dl-1M-1
N[C@@H](Cc1c[nH]c2ccc(Br)cc12)C(=O)N[C@@H](Cc1c[nH]c2ccccc12)C(=O)O (H-[Trp(5-Br)]-Trp-OH)	334 g dl-1M-1
N[C@@H](Cc1c[nH]c2ccc(Br)cc12)C(=O)N[C@@H](Cc1c[nH]c2ccc(Br)cc12)C(=O)O (H-[Trp(5-Br)]-[Trp(5-Br)]-OH)	726 g dl-1M-1
